Molecules are shown by their SMILES. Counter-ions that a name gives are not always drawn.

T1 sequence (P22002 whole entry, other chains not shown, the tested form may be a part): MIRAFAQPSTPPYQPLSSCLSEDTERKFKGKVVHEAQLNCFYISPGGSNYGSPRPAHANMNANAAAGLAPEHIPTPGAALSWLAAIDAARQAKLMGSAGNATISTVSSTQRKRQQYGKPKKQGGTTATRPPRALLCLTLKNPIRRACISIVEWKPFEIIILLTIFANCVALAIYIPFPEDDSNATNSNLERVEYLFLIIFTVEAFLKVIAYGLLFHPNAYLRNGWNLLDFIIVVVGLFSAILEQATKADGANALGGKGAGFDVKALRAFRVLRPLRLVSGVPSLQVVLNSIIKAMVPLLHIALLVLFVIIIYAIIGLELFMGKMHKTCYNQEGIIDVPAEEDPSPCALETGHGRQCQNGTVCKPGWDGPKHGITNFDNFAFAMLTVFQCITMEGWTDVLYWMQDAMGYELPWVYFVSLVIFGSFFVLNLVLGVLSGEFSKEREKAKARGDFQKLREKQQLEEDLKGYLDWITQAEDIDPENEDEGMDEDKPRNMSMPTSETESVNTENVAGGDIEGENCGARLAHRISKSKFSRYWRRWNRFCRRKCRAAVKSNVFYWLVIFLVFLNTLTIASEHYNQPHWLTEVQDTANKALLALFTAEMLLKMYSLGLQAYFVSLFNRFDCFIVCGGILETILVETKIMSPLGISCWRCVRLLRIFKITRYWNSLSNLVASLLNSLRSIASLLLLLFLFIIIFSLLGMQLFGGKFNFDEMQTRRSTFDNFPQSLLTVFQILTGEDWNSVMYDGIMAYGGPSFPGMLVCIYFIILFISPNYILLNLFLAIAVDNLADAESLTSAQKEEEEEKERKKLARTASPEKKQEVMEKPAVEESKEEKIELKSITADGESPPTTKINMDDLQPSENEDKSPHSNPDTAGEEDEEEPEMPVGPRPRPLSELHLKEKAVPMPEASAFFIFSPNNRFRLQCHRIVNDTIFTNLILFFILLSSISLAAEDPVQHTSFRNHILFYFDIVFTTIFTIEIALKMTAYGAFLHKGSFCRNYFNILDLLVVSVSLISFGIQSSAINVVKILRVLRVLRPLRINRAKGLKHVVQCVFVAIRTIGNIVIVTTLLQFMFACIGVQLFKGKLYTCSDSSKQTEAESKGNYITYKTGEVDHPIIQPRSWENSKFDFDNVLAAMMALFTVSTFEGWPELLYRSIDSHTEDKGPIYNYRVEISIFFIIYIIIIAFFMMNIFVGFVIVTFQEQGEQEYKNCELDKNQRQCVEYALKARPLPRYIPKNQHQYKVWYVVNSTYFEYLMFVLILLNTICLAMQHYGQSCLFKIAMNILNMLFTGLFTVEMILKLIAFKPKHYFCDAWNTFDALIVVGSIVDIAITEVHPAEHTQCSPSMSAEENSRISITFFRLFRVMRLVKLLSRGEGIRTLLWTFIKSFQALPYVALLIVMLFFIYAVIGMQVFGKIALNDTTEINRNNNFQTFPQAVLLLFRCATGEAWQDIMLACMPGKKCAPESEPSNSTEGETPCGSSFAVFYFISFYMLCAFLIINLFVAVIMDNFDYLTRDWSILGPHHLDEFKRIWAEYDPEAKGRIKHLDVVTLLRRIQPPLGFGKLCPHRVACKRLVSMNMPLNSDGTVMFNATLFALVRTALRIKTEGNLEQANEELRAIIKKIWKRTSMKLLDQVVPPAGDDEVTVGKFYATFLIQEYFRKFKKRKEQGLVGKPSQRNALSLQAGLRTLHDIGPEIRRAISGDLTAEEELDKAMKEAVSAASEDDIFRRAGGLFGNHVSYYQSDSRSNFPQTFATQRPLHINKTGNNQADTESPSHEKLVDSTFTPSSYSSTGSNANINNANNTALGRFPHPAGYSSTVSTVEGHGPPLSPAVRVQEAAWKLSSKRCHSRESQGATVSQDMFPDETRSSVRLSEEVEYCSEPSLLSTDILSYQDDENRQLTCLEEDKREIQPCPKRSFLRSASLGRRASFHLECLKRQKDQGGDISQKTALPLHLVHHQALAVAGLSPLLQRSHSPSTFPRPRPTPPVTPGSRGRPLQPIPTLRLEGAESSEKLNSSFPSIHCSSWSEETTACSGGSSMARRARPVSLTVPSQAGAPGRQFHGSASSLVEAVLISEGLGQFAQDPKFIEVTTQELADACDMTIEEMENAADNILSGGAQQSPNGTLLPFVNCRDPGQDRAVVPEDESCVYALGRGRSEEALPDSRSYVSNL
T1 sequence (P54290 25-944 partner limits assumed, other chains not shown): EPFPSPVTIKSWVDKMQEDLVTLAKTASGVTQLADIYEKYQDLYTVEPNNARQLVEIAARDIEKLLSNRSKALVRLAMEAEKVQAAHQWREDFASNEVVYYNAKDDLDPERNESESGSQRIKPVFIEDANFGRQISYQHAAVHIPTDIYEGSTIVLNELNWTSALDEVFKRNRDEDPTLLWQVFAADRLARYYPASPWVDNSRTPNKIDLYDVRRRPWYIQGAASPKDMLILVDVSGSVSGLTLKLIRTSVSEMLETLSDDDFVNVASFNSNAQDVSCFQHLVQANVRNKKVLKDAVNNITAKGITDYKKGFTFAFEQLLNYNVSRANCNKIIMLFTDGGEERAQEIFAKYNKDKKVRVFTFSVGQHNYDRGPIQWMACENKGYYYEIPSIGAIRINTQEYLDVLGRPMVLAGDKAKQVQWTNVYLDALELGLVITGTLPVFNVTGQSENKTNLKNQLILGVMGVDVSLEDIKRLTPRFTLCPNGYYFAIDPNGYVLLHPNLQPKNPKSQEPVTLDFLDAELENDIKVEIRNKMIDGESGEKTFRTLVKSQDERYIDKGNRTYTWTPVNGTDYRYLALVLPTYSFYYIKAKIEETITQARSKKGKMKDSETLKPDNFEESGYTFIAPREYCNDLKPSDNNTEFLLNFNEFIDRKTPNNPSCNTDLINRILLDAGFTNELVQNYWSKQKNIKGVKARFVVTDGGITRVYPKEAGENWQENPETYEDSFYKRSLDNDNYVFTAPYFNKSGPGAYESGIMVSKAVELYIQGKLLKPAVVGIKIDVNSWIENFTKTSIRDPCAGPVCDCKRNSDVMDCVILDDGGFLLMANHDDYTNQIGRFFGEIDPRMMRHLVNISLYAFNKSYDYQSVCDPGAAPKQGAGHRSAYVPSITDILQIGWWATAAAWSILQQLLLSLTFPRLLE
T1 sequence (P54290 945-1091 partner limits assumed, other chains not shown): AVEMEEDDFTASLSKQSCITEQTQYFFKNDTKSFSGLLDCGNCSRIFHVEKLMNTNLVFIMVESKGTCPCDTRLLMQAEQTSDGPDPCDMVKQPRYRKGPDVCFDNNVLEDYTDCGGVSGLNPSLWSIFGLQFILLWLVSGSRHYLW

The first assay concerns the target T1, L-type calcium channel (Rattus norvegicus, UniProt P22002).
T1 construct: membrane fragments of rat cardiac muscle; from tissue; host or cells: rat cardiac muscle membranes
In words: Competition binding of [3H]nitrendipine to membrane fragments of rat cardiac muscle. As to conditions: [3H]nitrendipine, rat cardiac muscle membrane fragments, L-type calcium channel.
`CCOC(=O)C1=C(CNCCCN2CCC(c3ccccc3)(c3ccccc3)CC2)NC(C)=C(C(=O)OC)C1c1ccc([N+](=O)[O-])cc1.Cl.O` (stereo not drawn) [Example 90, 3-Ethoxycarbonyl-1,4-dihydro-5-methoxycarbonyl-6-methyl-4-(4-nitro)phenyl-2-(N-(3-(4,4,-diphenylpiperidin-1-yl)propyl)amino)methylpyridine, hydrochloride hydrate]: the “pKi Ca” value is 6.63. The same measure, in the same setting: to `COC(=O)C1=C(C)NC2=C(C(=O)N(CCCN3CCC(c4ccccc4)(c4ccccc4)CC3)C2)C1c1ccc([N+](=O)[O-])cc1.Cl.O` (stereo not drawn) [Example 91, 1,4,7,7-Tetrahydro-3-methoxycarbonyl-6-methyl-5-oxo-4-(4-nitrophenyl)-6-(3-(4,4-diphenylpiperidin-1-yl)) propylpyrrolo[3,4-b]pyridine, hydrochloride hydrate] belongs 6.55; to `CCC1=C(C(N)=O)C(c2ccc([N+](=O)[O-])cc2)C(C(=O)NCCCN2CCC(O)(c3ccccc3)CC2)=CN1CC.Cl.O` (stereo not drawn) [Example 101, 5-Carboxamido-1,6-diethyl-1,4-dihydro-3-{N-[3-(4-hydroxy-4-phenylpiperidin-1-yl)propyl]}carboxamido-4-(4-nitrophenyl)pyridine hydrochloride hydrate], 3.

The assay is the same for the next values; noted with them: [3H]nitrendipine, rat cardiac muscle membranes; SEM and n in lines below.
Take `COC(=O)C1=C(C)NC(C)=C(C(=O)NCCCCN2CCC(c3ccccc3)(c3ccccc3)CC2)C1c1ccc([N+](=O)[O-])cc1.Cl.O` (stereo not drawn) [Example 53, 1,4-Dihydro-3-methoxycarbonyl-2,6-dimethyl-4-(4-nitrophenyl)-5-{N-[4-(4,4-diphenylpiperidin-1-yl)butyl]}carboxamidopyridine hydrochloride hydrate]: the “pKi Ca” value was 5.54. `CC1=C(C(N)=O)C(c2ccc([N+](=O)[O-])cc2)C(C(=O)NC2CCN(Cc3ccccc3)CC2)=C(c2ccoc2)N1.Cl.O` (stereo not drawn) [Example 66]: the “pKi Ca” value is 6.22. Consider `CCC1=C(C(=O)NCCCN2CCc3cc(OC)c(OC)cc3C2)C(c2ccc([N+](=O)[O-])cc2)C(C(N)=O)=C(C)N1.Cl.O` (stereo not drawn) [Example 76, 5-Carboxamido-2-ethyl-1,4-dihydro-3-(N-(3-(1,2,3,4-tetrahydro-6,7-dimethoxyisoquinolin-2-yl)propyl)) carboxamido-6-methyl-4-(4-nitro)phenylpyridine hydrochloride hydrate], for which the “pKi Ca” value stood at 5.49. Consider `CCC1=C(C(=O)NCCCCN2CCC(c3ccccc3)CC2)C(c2ccc([N+](=O)[O-])cc2)C(C(N)=O)=C(C)N1.Cl.O` (stereo not drawn) [Example 77, 5-Carboxamido-2-ethyl-1,4-dihydro-6-methyl-4-(4-nitro)phenyl-3-(N-(4-(4-phenylpiperidin-1-yl)butyl))carboxamidopyridine hydrochloride hydrate], for which the “pKi Ca” value turned out to be 5.94. For `COC(=O)C1=C(C)NC(c2ccccc2)=C(C(=O)NCCCN2CCC(c3ccccc3)CC2)C1c1ccc([N+](=O)[O-])cc1.Cl` (stereo not drawn) [Example 79, 1,4-Dihydro-5-methoxycarbonyl-6-methyl-4-(4-nitro)phenyl-2-phenyl-3-(N-(3-(4-phenylpiperidin-1-yl)propyl)) carboxamidopyridine hydrochloride], the “pKi Ca” value is recorded as 6.17.

Still in this assay, the particulars now being: [3H]nitrendipine, rat cardiac muscle membranes; SEM and n in lines below; read-out: pKi Ca (converted).
With `COC(=O)C1=C(C)NC(C)=C(C(=O)NCCCCN2CCC(c3ccccc3)CC2)C1c1ccc([N+](=O)[O-])cc1` (stereo not drawn) [Example 3, 1,4-Dihydro-3-methoxycarbonyl-2,6-dimethyl-4-(4-nitrophenyl)-5-{N-[4-(4-phenylpiperidin-1-yl)butyl]}carbozamidopyridine hydrochloride hydrate], the Ki is 1000 µM.

As for `CC(=O)C1=C(C)NC(C)=C(C(=O)NCCCN2CCC(c3ccccc3)(c3ccccc3)CC2)C1c1ccc([N+](=O)[O-])cc1` (stereo not drawn) [Example 47, 5-Acetyl-1,4-dihydro-2,6-dimethyl-4-(4-nitrophenyl)-3-{N-[3-(4,4-diphenylpiperidin-1-yl)propyl]}carboxamidopyridine], the Ki is 17.8 µM. As to `COC(=O)C1=C(C)NC(C)=C(C(=O)OCCCN2CCC(c3ccccc3)CC2)C1c1ccc([N+](=O)[O-])cc1` (stereo not drawn) [Example 48, 1,4-Dihydro-5-methazycarbonyl-2,6-dimethyl-4-(4-nitrophenyl)-3-[3-(4-phenylpiperidin-1-yl)propoxy]}carbonylpyridine hydrochloride hydrate], the Ki is 0.479 µM. Turning to `COC(=O)C1=C(C)NC(C)=C(C(=O)OCCCN2CCCCC2)C1c1ccc([N+](=O)[O-])cc1` (stereo not drawn) [Example 50, 1,4-Dihydro-5-methoxycarbonyl-2,6-dimethyl-4-(4-nitrophenyl)-3-[3-(piperidin-1-yl)propoxy]carbonylpyridine hydrochloride etherate], the Ki is 9.55 µM. As to `COC(=O)C1=C(C)NC(C)=C(C(=O)NCCCN2CCCCC2)C1c1ccc([N+](=O)[O-])cc1` (stereo not drawn) [Example 51, 1,4-Dihydro-3-methoxycarbonyl-2,6-dimethyl-4-(4-nitrophenyl)-5-{N-[3-(piperidin-1-yl)propyl]}carboxamidopyridine hydrochloride etherate], the Ki was 1000 µM. In the case of `COC(=O)C1=C(C)NC(C)=C(C(=O)NCCCN2CCc3cc(OC)c(OC)cc3C2)C1c1ccc([N+](=O)[O-])cc1` (stereo not drawn) [Example 57, 1,4-Dihydro-3-methoxycarbonyl-5-{N-[3-(1,2,3,4-tetrahydro-6,7-dimethoxyisoquinolin-2-yl)propyl]}carboxamido-2,6-dimethyl-4-(4-nitrophenyl)pyridine hydrochloride hydrate], the Ki was 1000 µM. `COc1cc2c(cc1OC)CN(CCCNC(=O)C1=C(C)NC(C)=C(C(N)=O)C1c1ccc([N+](=O)[O-])cc1)CC2` (stereo not drawn) [Example 58, 5-Carboxamido-1,4-dihydro-3-{N-[3-(1,2,3,4-tetrahydro-6,7-dimethoxyisoquinolin-2-yl)propyl]}carboxamido-2,6-dimethyl-4-(4-nitrophenyl)pyridine hydrochloride]: the Ki is 166 µM. Consider `COC(=O)C1=C(C)NC(c2ccoc2)=C(C(=O)NCCCN2CCC(c3ccccc3)CC2)C1c1ccc([N+](=O)[O-])cc1` (stereo not drawn) [Example 65, 2-(Furan-3-yl)-1,4-dihydro-5-methoxycarbonyl-6-methyl-4-(4-nitrophenyl)-5-{N-[3-(4-phenylpiperidin-1-yl)propyl]}carboxamidopyridine hydrochloride hydrate], for which the Ki is 3.09 µM. Regarding `CCC1=C(C(=O)NCCCN2CCC(c3ccccc3)CC2)C(c2ccc([N+](=O)[O-])cc2)C(C(=O)OC)=C(C)N1` (stereo not drawn) [Example 74, 2-Ethyl-1,4-dihydro-5-methoxycarbonyl-6-methyl-4-(4-nitro)phenyl-3-(N-(3-(4-phenylpiperidin-1-yl)propyl)) carboxamidopyridine hydrochloride hydrate], the Ki is 5.25 µM. `CCC1=C(C(=O)NC2CCN(Cc3ccccc3)CC2)C(c2ccc([N+](=O)[O-])cc2)C(C(=O)OC)=C(C)N1` (stereo not drawn) [Example 75, 2-Ethyl-1,4-dihydro-5-methoxycarbonyl-6-methyl-4-(4-nitro)phenyl-3-(N-(N-phenylmethyl)piperidin-4-yl)carboxamidopyridine hydrochloride]: the Ki is 3.55 µM.

(Values after patent publication US6608086B2, “Dihydropyridines and new uses thereof” (Synaptic Pharmaceutical Corporation, priority 1993, dated 2003).)
